Measured values as given in PubChem BioAssay AID1918933 (Molecular Pharmacology Branch, DTP, NCI, 2023).
pIC50: −log10 of the molar value.

Tested on: 186277-243-T-J2-PDC complex spheroid viability
Test: Anticancer human tumor 186277-243-T-J2-PDC patient-derived colon adenocarcinoma cell line growth inhibition
Details: for pIC50: curve of first compound; for viability, T/C: stronger effect = lower value
In short: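 Complex spheroids of tumor cells with HUVEC and human MSCs, exposed to iadademstat combined with other agents. Each agent tested in half-log steps from near clinical Cmax (else 10 microM top), DMSO ≤0.25%.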

[1] = second compound 0.1 µM, first compound 0.0316 µM
[2] = second compound 0.1 µM, first compound 0.1 µM
[3] = second compound 0.316 µM, first compound 0.0316 µM
[4] = second compound 0.316 µM, first compound 0.1 µM
[5] = second compound 1 µM, first compound 0.0316 µM
[6] = second compound 1 µM, first compound 0.1 µM
[7] = second compound 3.16 µM, first compound 0.0316 µM
[8] = second compound 3.16 µM, first compound 0.1 µM
[9] = second compound 10 µM, first compound 0.0316 µM
[10] = second compound 10 µM, first compound 0.1 µM
[11] = second compound 0.1 µM, first compound 0.000949 µM
[12] = second compound 0.1 µM, first compound 0.003 µM
[13] = second compound 0.1 µM, first compound 0.00949 µM
[14] = second compound 0.1 µM, first compound 0.03 µM
[15] = second compound 0.1 µM, first compound 0.0949 µM
[16] = second compound 0.1 µM, first compound 0.3 µM
[17] = second compound 0.316 µM, first compound 0.000949 µM
[18] = second compound 0.316 µM, first compound 0.003 µM
[19] = second compound 0.316 µM, first compound 0.00949 µM
[20] = second compound 0.316 µM, first compound 0.03 µM
[21] = second compound 0.316 µM, first compound 0.0949 µM
[22] = second compound 0.316 µM, first compound 0.3 µM
[23] = second compound 1 µM, first compound 0.000949 µM
[24] = second compound 1 µM, first compound 0.003 µM
[25] = second compound 1 µM, first compound 0.00949 µM
[26] = second compound 1 µM, first compound 0.03 µM
[27] = second compound 1 µM, first compound 0.0949 µM
[28] = second compound 1 µM, first compound 0.3 µM
[29] = second compound 3.16 µM, first compound 0.000949 µM
[30] = second compound 3.16 µM, first compound 0.003 µM
[31] = second compound 3.16 µM, first compound 0.00949 µM
[32] = second compound 3.16 µM, first compound 0.03 µM
[33] = second compound 3.16 µM, first compound 0.0949 µM
[34] = second compound 3.16 µM, first compound 0.3 µM
[35] = second compound 10 µM, first compound 0.000949 µM
[36] = second compound 10 µM, first compound 0.003 µM
[37] = second compound 10 µM, first compound 0.00949 µM
[38] = second compound 10 µM, first compound 0.03 µM
[39] = second compound 10 µM, first compound 0.0949 µM
[40] = second compound 10 µM, first compound 0.3 µM
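Further: 7 day exposure to compounds.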
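Wherever viability, T/C is given: 100% = DMSO vehicle control viability.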

CC[C@@]1(O)C(=O)OCc2c1cc1n(c2=O)Cc2cc3c(CN(C)C)c(O)ccc3nc2-1 + NC1CCC(NC2CC2c2ccccc2)CC1
pIC50 (second compound 0.1 µM): < 7.00 | pIC50 (second compound 0.316 µM): < 7.00 | pIC50 (second compound 1 µM): < 7.00 | pIC50 (second compound 3.16 µM): < 7.00 | pIC50 (second compound 10 µM): < 7.00 | viability, T/C (second compound 0.1 µM, first compound 0.000316 µM): 106% | viability, T/C (second compound 0.1 µM, first compound 0.001 µM): 99.1% | viability, T/C (second compound 0.1 µM, first compound 0.00316 µM): 137% | viability, T/C (second compound 0.1 µM, first compound 0.01 µM): 131% | viability, T/C [1]: 102% | viability, T/C [2]: 51.8% | viability, T/C (second compound 0.316 µM, first compound 0.000316 µM): 111% | viability, T/C (second compound 0.316 µM, first compound 0.001 µM): 108% | viability, T/C (second compound 0.316 µM, first compound 0.00316 µM): 131% | viability, T/C (second compound 0.316 µM, first compound 0.01 µM): 132% | viability, T/C [3]: 98.6% | viability, T/C [4]: 52.8% | viability, T/C (second compound 1 µM, first compound 0.000316 µM): 107% | viability, T/C (second compound 1 µM, first compound 0.001 µM): 114% | viability, T/C (second compound 1 µM, first compound 0.00316 µM): 137% | viability, T/C (second compound 1 µM, first compound 0.01 µM): 131% | viability, T/C [5]: 103% | viability, T/C [6]: 56.9% | viability, T/C (second compound 3.16 µM, first compound 0.000316 µM): 107% | viability, T/C (second compound 3.16 µM, first compound 0.001 µM): 124% | viability, T/C (second compound 3.16 µM, first compound 0.00316 µM): 147% | viability, T/C (second compound 3.16 µM, first compound 0.01 µM): 134% | viability, T/C [7]: 104% | viability, T/C [8]: 61.6% | viability, T/C (second compound 10 µM, first compound 0.000316 µM): 104% | viability, T/C (second compound 10 µM, first compound 0.001 µM): 116% | viability, T/C (second compound 10 µM, first compound 0.00316 µM): 140% | viability, T/C (second compound 10 µM, first compound 0.01 µM): 131% | viability, T/C [9]: 110% | viability, T/C [10]: 63.2%

CCc1c2c(nc3ccc(O)cc13)-c1cc3c(c(=O)n1C2)COC(=O)[C@]3(O)CC + NC1CCC(NC2CC2c2ccccc2)CC1
pIC50 (second compound 0.1 µM): 8.68 | pIC50 (second compound 0.316 µM): 8.68 | pIC50 (second compound 1 µM): 8.57 | pIC50 (second compound 3.16 µM): 8.44 | pIC50 (second compound 10 µM): 8.54 | viability, T/C [11]: 63% | viability, T/C [12]: 40.7% | viability, T/C [13]: 33.6% | viability, T/C [14]: 17.5% | viability, T/C [15]: 1.51% | viability, T/C [16]: 0.43% | viability, T/C [17]: 62.7% | viability, T/C [18]: 42.2% | viability, T/C [19]: 30.1% | viability, T/C [20]: 19.3% | viability, T/C [21]: 1.53% | viability, T/C [22]: 0.53% | viability, T/C [23]: 65.7% | viability, T/C [24]: 43.1% | viability, T/C [25]: 38.1% | viability, T/C [26]: 20.4% | viability, T/C [27]: 1.56% | viability, T/C [28]: 0.4% | viability, T/C [29]: 71.2% | viability, T/C [30]: 49.2% | viability, T/C [31]: 38.2% | viability, T/C [32]: 20.8% | viability, T/C [33]: 1.23% | viability, T/C [34]: 0.47% | viability, T/C [35]: 80.1% | viability, T/C [36]: 44.5% | viability, T/C [37]: 32.6% | viability, T/C [38]: 15.5% | viability, T/C [39]: 1.74% | viability, T/C [40]: 1.75%

Nc1ccccc1NC(=O)c1ccc(CNC(=O)OCc2cccnc2)cc1 + NC1CCC(NC2CC2c2ccccc2)CC1
pIC50 (second compound 0.1 µM): 5.85 | pIC50 (second compound 0.316 µM): 5.85 | pIC50 (second compound 1 µM): 5.82 | pIC50 (second compound 3.16 µM): 5.86 | pIC50 (second compound 10 µM): 5.86 | viability, T/C [13]: 112% | viability, T/C [14]: 96.2% | viability, T/C [15]: 95.3% | viability, T/C [16]: 110% | viability, T/C (second compound 0.1 µM, first compound 0.949 µM): 69.6% | viability, T/C (second compound 0.1 µM, first compound 3 µM): 12.5% | viability, T/C [19]: 112% | viability, T/C [20]: 113% | viability, T/C [21]: 109% | viability, T/C [22]: 96.5% | viability, T/C (second compound 0.316 µM, first compound 0.949 µM): 68.7% | viability, T/C (second compound 0.316 µM, first compound 3 µM): 13.5% | viability, T/C [25]: 112% | viability, T/C [26]: 113% | viability, T/C [27]: 92.8% | viability, T/C [28]: 107% | viability, T/C (second compound 1 µM, first compound 0.949 µM): 74.9% | viability, T/C (second compound 1 µM, first compound 3 µM): 13.7% | viability, T/C [31]: 118% | viability, T/C [32]: 113% | viability, T/C [33]: 106% | viability, T/C [34]: 108% | viability, T/C (second compound 3.16 µM, first compound 0.949 µM): 67.6% | viability, T/C (second compound 3.16 µM, first compound 3 µM): 12.8% | viability, T/C [37]: 106% | viability, T/C [38]: 98.7% | viability, T/C [39]: 103% | viability, T/C [40]: 93.4% | viability, T/C (second compound 10 µM, first compound 0.949 µM): 71.1% | viability, T/C (second compound 10 µM, first compound 3 µM): 8.04%

Nc1ccn(C2OC(CO)C(O)C2(F)F)c(=O)n1 (stereo not given) + NC1CCC(NC2CC2c2ccccc2)CC1
pIC50 (second compound 0.1 µM): > 9.02 | pIC50 (second compound 0.316 µM): > 9.02 | pIC50 (second compound 1 µM): > 9.02 | pIC50 (second compound 3.16 µM): > 9.02 | pIC50 (second compound 10 µM): > 9.02 | viability, T/C [11]: 25.8% | viability, T/C [12]: 17.1% | viability, T/C [13]: 16.5% | viability, T/C [14]: 15.9% | viability, T/C [15]: 15.9% | viability, T/C [16]: 15.1% | viability, T/C [17]: 22.9% | viability, T/C [18]: 18.7% | viability, T/C [19]: 16.2% | viability, T/C [20]: 15.6% | viability, T/C [21]: 16.1% | viability, T/C [22]: 15.6% | viability, T/C [23]: 26% | viability, T/C [24]: 18.6% | viability, T/C [25]: 18.1% | viability, T/C [26]: 18% | viability, T/C [27]: 16.8% | viability, T/C [28]: 16.3% | viability, T/C [29]: 27.2% | viability, T/C [30]: 20.5% | viability, T/C [31]: 20.1% | viability, T/C [32]: 19.6% | viability, T/C [33]: 19.2% | viability, T/C [34]: 15.9% | viability, T/C [35]: 31.3% | viability, T/C [36]: 25.1% | viability, T/C [37]: 25.3% | viability, T/C [38]: 18.5% | viability, T/C [39]: 23.3% | viability, T/C [40]: 20.9%

O=C(c1cc(Cc2n[nH]c(=O)c3ccccc23)ccc1F)N1CCN(C(=O)C2CC2)CC1 + NC1CCC(NC2CC2c2ccccc2)CC1
pIC50 (second compound 0.1 µM): < 5.00 | pIC50 (second compound 0.316 µM): < 5.00 | pIC50 (second compound 1 µM): < 5.00 | pIC50 (second compound 3.16 µM): < 5.00 | pIC50 (second compound 10 µM): < 5.00 | viability, T/C [1]: 121% | viability, T/C [2]: 121% | viability, T/C (second compound 0.1 µM, first compound 0.316 µM): 117% | viability, T/C (second compound 0.1 µM, first compound 1 µM): 123% | viability, T/C (second compound 0.1 µM, first compound 3.16 µM): 121% | viability, T/C (second compound 0.1 µM, first compound 10 µM): 94% | viability, T/C [3]: 119% | viability, T/C [4]: 114% | viability, T/C (second compound 0.316 µM, first compound 0.316 µM): 117% | viability, T/C (second compound 0.316 µM, first compound 1 µM): 113% | viability, T/C (second compound 0.316 µM, first compound 3.16 µM): 127% | viability, T/C (second compound 0.316 µM, first compound 10 µM): 84.1% | viability, T/C [5]: 111% | viability, T/C [6]: 112% | viability, T/C (second compound 1 µM, first compound 0.316 µM): 122% | viability, T/C (second compound 1 µM, first compound 1 µM): 123% | viability, T/C (second compound 1 µM, first compound 3.16 µM): 121% | viability, T/C (second compound 1 µM, first compound 10 µM): 79.1% | viability, T/C [7]: 120% | viability, T/C [8]: 120% | viability, T/C (second compound 3.16 µM, first compound 0.316 µM): 119% | viability, T/C (second compound 3.16 µM, first compound 1 µM): 132% | viability, T/C (second compound 3.16 µM, first compound 3.16 µM): 124% | viability, T/C (second compound 3.16 µM, first compound 10 µM): 80.5% | viability, T/C [9]: 111% | viability, T/C [10]: 109% | viability, T/C (second compound 10 µM, first compound 0.316 µM): 114% | viability, T/C (second compound 10 µM, first compound 1 µM): 134% | viability, T/C (second compound 10 µM, first compound 3.16 µM): 109% | viability, T/C (second compound 10 µM, first compound 10 µM): 69.9%
